For orientation: pIC50 means the IC50 on a negative log10 scale, so that one unit is a factor of ten.

pIC50: −log10 of the molar value.

Data on 9 molecules can be found in ChEMBL document CHEMBL1146978 (Bioorg Med Chem Lett, 2006).

In assay [1] the target is Voltage-dependent calcium channel alpha2delta subunit (Sus scrofa, UniProt O77773). Put plainly: Displacement of [3H]gabapentin from alpha-2delta calcium channel in pig brain membrane. Format: cell membranes. In general terms: Loss of bound radioactivity is the signal in a displacement assay; it reports binding, not function.
Chain of Voltage-dependent calcium channel alpha2delta subunit (O77773 whole entry): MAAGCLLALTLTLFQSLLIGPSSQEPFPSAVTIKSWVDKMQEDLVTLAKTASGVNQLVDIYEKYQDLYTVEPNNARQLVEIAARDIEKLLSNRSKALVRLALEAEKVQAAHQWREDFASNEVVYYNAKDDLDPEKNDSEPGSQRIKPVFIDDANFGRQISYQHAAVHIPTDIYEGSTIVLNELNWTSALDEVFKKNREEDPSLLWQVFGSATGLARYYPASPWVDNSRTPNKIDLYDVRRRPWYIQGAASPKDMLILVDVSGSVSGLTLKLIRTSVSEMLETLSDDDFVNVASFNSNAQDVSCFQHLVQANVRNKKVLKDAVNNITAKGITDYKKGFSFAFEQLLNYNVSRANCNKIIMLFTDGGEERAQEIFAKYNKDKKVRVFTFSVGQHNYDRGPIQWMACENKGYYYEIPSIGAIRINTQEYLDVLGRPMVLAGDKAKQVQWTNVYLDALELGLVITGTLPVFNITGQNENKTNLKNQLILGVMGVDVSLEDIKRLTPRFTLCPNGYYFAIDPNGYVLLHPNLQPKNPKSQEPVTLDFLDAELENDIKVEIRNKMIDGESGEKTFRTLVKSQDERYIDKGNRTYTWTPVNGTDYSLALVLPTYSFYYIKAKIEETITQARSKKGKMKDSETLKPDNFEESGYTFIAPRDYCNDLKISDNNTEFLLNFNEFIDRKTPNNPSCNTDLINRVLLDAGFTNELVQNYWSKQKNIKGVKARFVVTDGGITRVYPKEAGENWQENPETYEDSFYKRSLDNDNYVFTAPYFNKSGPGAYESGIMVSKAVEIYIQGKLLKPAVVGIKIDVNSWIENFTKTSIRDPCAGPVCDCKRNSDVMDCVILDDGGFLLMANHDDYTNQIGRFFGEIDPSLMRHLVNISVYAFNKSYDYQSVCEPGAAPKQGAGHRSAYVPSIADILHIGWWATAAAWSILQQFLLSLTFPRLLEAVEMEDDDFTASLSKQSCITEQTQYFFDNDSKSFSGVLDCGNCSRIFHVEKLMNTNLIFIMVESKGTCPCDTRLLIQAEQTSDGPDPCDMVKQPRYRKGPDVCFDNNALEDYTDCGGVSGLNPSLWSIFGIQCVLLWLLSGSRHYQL
The next assay has as its system Mus musculus. In words: Anticonvulsant activity against DBA/2 mouse at 30 mg/kg, po 2 hrs post dose. Format: functional.
Assay [2] can be described thus: Inhibition of [3H]leucine uptake at System L in CHO cells. Format: cell-based.
Another assay relates to Rattus norvegicus. In words: Anxiolytic effect in rat at 30 mg/kg, po by Vogel water lick conflict assay assessed by ability to reverse shock-induced suppression of drinking. Format: functional.

As to `NCC(CC(=O)O)CC1CCOC1` (stereo not given), the pIC50 in assay [1] was < 2.00. Besides, in the assay with Mus musculus, the Activity turned out to be 0%.
In the same order, the values of `NCC(CC(=O)O)Cc1ccccc1` (stereo not given) are < 2.00 and 0%.
With `NC[C@H](CC(=O)O)Cc1ccco1`, the pIC50 is 6.75 in assay [1] and 2.00 in assay [2]. In the assay on Mus musculus, the Activity is on record as 40%.
For the molecule `NCC(CC(=O)O)Cc1cccs1` (stereo not given), the pIC50 in assay [1] is 5.67; in assay [2], 2.53. Besides, the results for the Activity with Rattus norvegicus and with Mus musculus were 10.3% and 40%, respectively.
On to `NC[C@@H](CC(=O)O)Cc1ccco1`, for which the negative-log IC50 (pIC50) is 5.84 in assay [1] and 2.00 in assay [2]. For the same molecule, the figures for the Activity in the assay with Rattus norvegicus and in the assay with Mus musculus were 0.28% and 0%, respectively.
`NCC(CC(=O)O)Cc1ccoc1` (stereo not given): the pIC50 in assay [1] is 6.29; in assay [2], 2.85. The Activity in the assay on Rattus norvegicus was -17%; in the assay on Mus musculus it was 0%.
For `NCC(CC(=O)O)Cc1ccsc1` (stereo not given), the negative logarithm of the IC50 (pIC50) in assay [1] is 6.08; in assay [2], 2.15. Also, the Activity is on record as -3% with Rattus norvegicus and 60% with Mus musculus.
In the same order, the values of `NCC(CC(=O)O)Cc1ccco1` (stereo not given) are 6.38, 2.00, 5.3% and 20%.
For `CC(C)C[C@H](CN)CC(=O)O` [PREGABALIN], in assay [2], the pIC50 is 3.55. Also, the Activity in the assay on Rattus norvegicus and in the assay with Mus musculus was 100% each time.
